Measurements: patent publication US4039669A, “Composition for topical application and use thereof” (Sterling Drug Inc., priority 1975, dated 1977)

Legend:
steroid 5α-reductase [1] = settings: cited from earlier work; for Anti-androgenic activity by inhibitory effects on steroid 5α-reductase activity: laboratory animals
[2] = in vivo; cited from earlier work
[3] = tested on: testosterone-stimulated flank organs; assay: Effect on testosterone-stimulated flank organs in the castrated hamster (topical); type: in vivo; settings: for Flank Organ Cholest., Mean ± S.E. / Flank Organ Diameter, Mean ± S.E. / Flank Organ Wet Wgt, Mean ± S.E. / Flank Organ Develop. (Med. Score): topical; for Flank Organ Cholest., Mean ± S.E. / Flank Organ Diameter, Mean ± S.E. / Flank Organ Wet Wgt, Mean ± S.E.: 14 times over 2 weeks; for Inhibition of testosterone-stimulated increase in the cholesterol contact of the flank organs (in words) / Reduction of testosterone-stimulated increase in flank organ diameter (in words) / Suppression of flank organ development, degree of pigmentation (in words) / Wet weight of the flank organs (in words): topical with 1 μg TP; for Flank Organ Develop. (Med. Score): degree of pigmentation, score 0 to 4, 2 weeks
Protocol: (§1) The effect of 17α-(n-propyl)androst-4-en-17β -ol-3-one and 17α-(n-butyl)androst-4-en-17β -ol-3-one on testosterone-stimulated flank organs and on endocrine organs in the castrated hamster was determined as follows:
(§2) Castrated hamsters were treated on both flank organs topically with testosterone propionate (TP) equivalent to 1 microgram of testosterone with or without the test agents dissolved in 5 microliters of absolute ethanol 14 times over a 2 weeks period. The hamsters were 4-5 weeks of age (55 to 75 grams body weight) and were caged individually. After the end of the two-weeks period, the development (degree of pigmentation) and diameter of the flank organs were assessed and measured, and the flank organs were punched out with an 8 mm cork borer for determination of wet weight and cholesterol content. Endocrine organ weights (adrenal gland, seminal vesicle and thymus gland) were also determined.
In the first table TP refers to testosterone propionate, Compd. I refers to 17α-(n-propyl)androst-4-en-17β -ol-3-one, Compd. II refers to 17α-(n-butyl)androst-4-en-17β -ol-3-one, and n refers to the number of animals in each group.

[4] = tested on: endocrine organs (adrenal gland, seminal vesicle and thymus gland); assay: Endocrine organ weights in the castrated hamster after topical treatment; type: in vivo; settings: for Endocr. Organ Wgts, Mean ± S.E.: Adrenal Gland / Endocr. Organ Wgts, Mean ± S.E.: Seminal Vesicle / Endocr. Organ Wgts, Mean ± S.E.: Thymus Gland: topical, 2 weeks; for Weights of the endocrine organs (in words): topical application, castrated hamsters
Protocol: as §1, §2

[5] = tested on: flank organ sebaceous glands; assay: Daily topical application to normal, sexually mature male hamsters; type: in vivo, hamster; settings: 200 μg daily, 6 weeks
steroid 5α-reductase [6] = assay: Inhibition of conversion of testosterone to dihydrotestosterone, minced hamster flank organ, tritiated testosterone; type: biochemical
Protocol: The effectiveness of 17α-(n-propyl)androst-4-en-17β -ol-3-one in inhibiting the conversion of testosterone dihydrotestosterone by the enzyme steroid 5α-reductase was measured using minced hamster flank organ as a source of the enzyme and tritiated testosterone as a substrate. At concentrations of one-hundredth molar and one-thousandth molar, 17α-(n-propyl)androst-4-en-17β -ol-3-one was 100% and 53% inhibitory, respectively.

[7] = Standard test procedures for androgenic, estrogenic or anabolic properties; type: in vivo
[8] = Progestational activity (Clauberg assay); type: in vivo
Protocol: When 17α-(n-propyl)androst-4-en-17β -ol-3-one was administered intramuscularly, its progestational activity was about one-fortieth that of progesterone.

[9] = Serum testosterone levels after topical application to sexually mature hamsters; type: in vivo, hamster; settings: 200 μg per flank organ topically, 3 weeks
Protocol: When 17α-(n-propyl)androst-4-en-17β -ol-3-one was topically applied to sexually mature hamsters at 200 μg per flank organ for a period of 3 weeks, serum testosterone levels were unchanged compared with untreated controls.

[10] = Subcutaneous and oral toxicity (LD50) in the mouse; settings: in vivo
Source text: (§3) 17α-(n-Propyl)androst-4-en-17β -ol-3-one is conveniently prepared by a three-step synthesis from 3β -acetoxyandrost-5-en-17-one in an over-all yield of 43%. The first step is a Grignard reaction with allylmagnesium bromide to give 17α-allylandrost-5-ene-3β,17β-diol in 81% yield. The second step is a hydrogenation over 10% palladium-on-carbon catalyst to afford 17α-propylandrost-5-ene-3β, 17β-diol in 88% yield. The third step is an Oppenauer oxidation with aluminum isopropoxide to give the desired 17α-(n-propyl)androst-4-en-17β -ol-3-one in 60.5% yields.

[11] = Subcutaneous and oral toxicity (LD50) in the rat; settings: in vivo
Source text: as §3

acne or sebum secretion = settings: tried topically; cited from earlier work
[12] = 200 μg topically with 1 μg testosterone propionate, castrated hamsters
[13] = castrated hamsters, 1 μg TP + 100 μg test compound
[14] = castrated hamsters, 1 μg TP + 200 μg test compound
[15] = Group III: 1 μg TP + 100 μg test compound
[16] = Groups IV, V: 1 μg TP + 200 μg test compound
[17] = oral, read-out: Oral toxicity (LD50)
[18] = sc, subcutaneous, read-out: Subcutaneous toxicity (LD50)
[19] = castrated hamsters, 1 μg TP alone

SMILES: C[C@]12CC[C@H]3[C@@H](CCC4=CC(=O)CC[C@@]43C)[C@@H]1CC[C@@H]2C(=O)O [3-oxoandrost-4-ene-17β-carboxylic acid]
- Block of the action of dihydrotestosterone on flank organ responses (steroid 5α-reductase [1]; castrated hamsters): did not, however, block
- Anti-androgenic activity by inhibitory effects on steroid 5α-reductase activity (steroid 5α-reductase [1]): exhibit anti-androgenic activity

SMILES: CC[C@]1(O)CC[C@H]2[C@@H]3CCC4=CC(=O)CC[C@]4(C)[C@H]3CC[C@@]21C [17α-ethylandrost-4-en-17β-ol-3-one]
- Systemic androgenic activity [2]: have systemic androgenic activity

SMILES: CCC[C@]1(OC=O)CC[C@H]2[C@@H]3CCC4=CC(=O)CC[C@]4(C)[C@H]3CC[C@@]21C [17β-Formyloxy-17α-(n-propyl)androst-4-en-3-one]
- Activity relative to the parent alcohol, by cholesterol content [3, 12]: about 40%
- Flank organ development (in words) [3, 12]: no effect
- Flank organ size (in words) [3, 12]: slightly reduced flank organ size
- Reduction of flank organ cholesterol content [3, 12]: 32%
- Reduction of flank organ wet weight [3, 12]: about 13%

SMILES: CCC[C@]1(O)CC[C@H]2[C@@H]3CCC4=CC(=O)CC[C@]4(C)[C@H]3CC[C@@]21C [Compd. I, 17α-(n-propyl)androst-4-en-17β -ol-3-one]
- Flank Organ Cholest., Mean ± S.E. [3, 13]: 162 ± 5.8 µg
- Flank Organ Diameter, Mean ± S.E. [3, 13]: 3.71±0.22 mm
- Flank Organ Wet Wgt, Mean ± S.E. [3, 13]: 28.5 ± 1.0 mg
- Flank Organ Cholest., Mean ± S.E. [3, 14]: 163 ± 9.4 µg
- Flank Organ Diameter, Mean ± S.E. [3, 14]: 3.91±0.14 mm
- Flank Organ Wet Wgt, Mean ± S.E. [3, 14]: 27.5 ± 1.3 mg
- Inhibition of testosterone-stimulated increase in the cholesterol contact of the flank organs (in words) ([3]; castrated hamsters): effective as inhibitors
- Reduction of testosterone-stimulated increase in flank organ diameter (in words) ([3]; castrated hamsters): effective
- Suppression of flank organ development, degree of pigmentation (in words) ([3]; castrated hamsters): effective in suppressing flank organ development
- Wet weight of the flank organs (in words) ([3]; castrated hamsters): reduced the wet weight of the flank organs below that recorded for the vehicle control
- Flank Organ Develop. (Med. Score) ([3]; 1 μg TP + 100 μg test compound): 3.5
- Flank Organ Develop. (Med. Score) ([3]; 1 μg TP + 200 μg test compound): 3.0
- Flank Organ Develop. (Med. Score) ([3]; 1 μg TP + 200 μg test compound, listed as Compound I): 3
- Endocr. Organ Wgts, Mean ± S.E.: Adrenal Gland [4, 15]: 12.1±0.32 Mg
- Endocr. Organ Wgts, Mean ± S.E.: Seminal Vesicle [4, 15]: 39.5±2.9 Mg
- Endocr. Organ Wgts, Mean ± S.E.: Thymus Gland [4, 15]: 58.3±6.7 Mg
- Endocr. Organ Wgts, Mean ± S.E.: Adrenal Gland [4, 16]: 11.6±0.48 Mg
- Endocr. Organ Wgts, Mean ± S.E.: Seminal Vesicle [4, 16]: 34.0±2.6 Mg
- Endocr. Organ Wgts, Mean ± S.E.: Thymus Gland [4, 16]: 43.5±4.9 Mg
- Weights of the endocrine organs (in words) [4]: not significantly altered
- Flank organ development [5]: caused a regression in flank organ development
- Seminal vesicle weights [5]: not reduced
- Size and lipid content of the sebaceous glands [5]: significantly reduced
- Inhibition of conversion of testosterone to dihydrotestosterone by steroid 5α-reductase (steroid 5α-reductase [6]; concentration one-hundredth molar): 100%
- Inhibition of conversion of testosterone to dihydrotestosterone by steroid 5α-reductase (steroid 5α-reductase [6]; concentration one-thousandth molar): 53%
- Androgenic, estrogenic or anabolic properties [7]: devoid of any significant androgenic, estrogenic or anabolic properties
- Progestational activity, Clauberg assay ([8]; 32 mg/kg applied topically): minimal progestational activity
- Progestational activity relative to that of progesterone ([8]; administered intramuscularly): about one-fortieth
- Serum testosterone levels compared with untreated controls [9]: unchanged
- LD50 [10, 17]: > 5000 mg/kg
- LD50 [10, 18]: > 1000 mg/kg
- LD50 [11, 17]: > 5000 mg/kg
- LD50 [11, 18]: > 1000 mg/kg

SMILES: CCCC[C@]1(O)CC[C@H]2[C@@H]3CCC4=CC(=O)CC[C@]4(C)[C@H]3CC[C@@]21C [Compd. II, 17α-(n-butyl)androst-4-en-17β -ol-3-one]
- Flank Organ Cholest., Mean ± S.E. [3, 14]: 151 ± 8.9 µg
- Flank Organ Diameter, Mean ± S.E. [3, 14]: 3.24±0.13 mm
- Flank Organ Wet Wgt, Mean ± S.E. [3, 14]: 21.6 ± 1.2 mg
- Inhibition of testosterone-stimulated increase in the cholesterol contact of the flank organs (in words) ([3]; castrated hamsters): effective as inhibitors
- Reduction of testosterone-stimulated increase in flank organ diameter (in words) ([3]; castrated hamsters): effective
- Suppression of flank organ development, degree of pigmentation (in words) ([3]; castrated hamsters): effective in suppressing flank organ development
- Wet weight of the flank organs (in words) ([3]; castrated hamsters): reduced the wet weight of the flank organs below that recorded for the vehicle control
- Flank Organ Develop. (Med. Score) ([3]; 1 μg TP + 200 μg test compound): 1.0
- Flank Organ Develop. (Med. Score) ([3]; 1 μg TP + 200 μg test compound, listed as Compound II): 1
- Endocr. Organ Wgts, Mean ± S.E.: Adrenal Gland [4, 16]: 12.4±0.53 Mg
- Endocr. Organ Wgts, Mean ± S.E.: Seminal Vesicle [4, 16]: 34.0±4.1 Mg
- Endocr. Organ Wgts, Mean ± S.E.: Thymus Gland [4, 16]: 60.7±7.6 Mg
- Weights of the endocrine organs (in words) [4]: not significantly altered

SMILES: C[C@]12CCC(=O)C=C1CC[C@@H]1[C@@H]2CC[C@@]2(C)[C@H]1CC[C@]2(C)O [Methyltestosterone]
- Systemic androgenic activity [2]: have systemic androgenic activity

SMILES: CCC(=O)O[C@H]1CC[C@H]2[C@@H]3CCC4=CC(=O)CC[C@]4(C)[C@H]3CC[C@]12C [TP, testosterone propionate, reference compound]
- Flank Organ Cholest., Mean ± S.E. [3, 19]: 238 ± 26 µg
- Flank Organ Diameter, Mean ± S.E. [3, 19]: 4.30±0.15 mm
- Flank Organ Wet Wgt, Mean ± S.E. [3, 19]: 42.0 ± 1.2 mg
- Flank Organ Develop. (Med. Score) ([3]; 1 μg TP alone): 4.0
- Endocr. Organ Wgts, Mean ± S.E.: Adrenal Gland ([4]; Group II: 1 μg TP alone): 11.8±0.81 Mg
- Endocr. Organ Wgts, Mean ± S.E.: Seminal Vesicle ([4]; Group II: 1 μg TP alone): 35.0±2.9 Mg
- Endocr. Organ Wgts, Mean ± S.E.: Thymus Gland ([4]; Group II: 1 μg TP alone): 55.2±6.5 Mg

SMILES: CC(=O)O[C@]1(C(C)=O)CC[C@H]2[C@@H]3C=C(Cl)C4=CC(=O)[C@@H]5C[C@@H]5[C@]4(C)[C@H]3CC[C@@]21C [cyproterone acetate, 6-chloro-1α , 2α-methylene-4,6-pregnadien-17α-o1-3,20-dione acetate]
- Effectiveness against acne or sebum secretion (acne or sebum secretion): not to be effective

SMILES: COC(=O)[C@H]1CC[C@H]2[C@@H]3CCC4=CC(=O)CC[C@]4(C)[C@H]3CC[C@]12C [methyl ester thereof]
- Anti-androgenic activity by inhibitory effects on steroid 5α-reductase activity (steroid 5α-reductase [1]): exhibit anti-androgenic activity

SMILES: CC(=O)[C@H]1CC[C@H]2[C@@H]3CCC4=CC(=O)CC[C@]4(C)[C@H]3CC[C@]12C [progesterone, reference compound]
- Progestational activity, Clauberg assay ([8]; 2 mg/kg applied topically): maximal response
